Reference: ChEMBL document CHEMBL6153174, “Design and Synthesis of Novel Deazapurine DNMT 1 Inhibitors with In Vivo Efficacy in DLBCL” (J Med Chem, 2025)

Experiments:
[1] = target: T1, DNA (cytosine-5)-methyltransferase 1 (Homo sapiens, UniProt P26358); experiment: Inhibition of DNMT1 (unknown origin) at 1 uM preincubated for 15 mins followed by substrate and [3H-SAM] addition and measured after 60 mins by microbeta analysis relative to control; details: time 75.0 min
[2] = system: MV4-11; experiment: Antiproliferative activity against human MV4-11 cells assessed as inhibition of cell viability measured after 72 hrs by MTT assay; format: functional, cell-based; details: MV4-11, 72 h
[3] = target: T1, DNA (cytosine-5)-methyltransferase 1; experiment: Inhibition of DNMT1 (unknown origin) preincubated for 15 mins followed by substrate and [3H-SAM] addition and measured after 60 mins by microbeta analysis
[4] = target: T1, DNA (cytosine-5)-methyltransferase 1; experiment: Inhibition of DNMT1 (unknown origin) at 5 uM preincubated for 15 mins followed by substrate and [3H-SAM] addition and measured after 60 mins by microbeta analysis relative to control; details: time 75.0 min
[5] = target: T2, DNA (cytosine-5)-methyltransferase 3A (Homo sapiens, UniProt Q9Y6K1); experiment: Inhibition of DNMT3A (unknown origin) at 5 uM preincubated for 15 mins followed by substrate and [3H-SAM] addition and measured after 60 mins by microbeta analysis relative to control; details: time 75.0 min
T2 sequence (Q9Y6K1 whole entry, looked up): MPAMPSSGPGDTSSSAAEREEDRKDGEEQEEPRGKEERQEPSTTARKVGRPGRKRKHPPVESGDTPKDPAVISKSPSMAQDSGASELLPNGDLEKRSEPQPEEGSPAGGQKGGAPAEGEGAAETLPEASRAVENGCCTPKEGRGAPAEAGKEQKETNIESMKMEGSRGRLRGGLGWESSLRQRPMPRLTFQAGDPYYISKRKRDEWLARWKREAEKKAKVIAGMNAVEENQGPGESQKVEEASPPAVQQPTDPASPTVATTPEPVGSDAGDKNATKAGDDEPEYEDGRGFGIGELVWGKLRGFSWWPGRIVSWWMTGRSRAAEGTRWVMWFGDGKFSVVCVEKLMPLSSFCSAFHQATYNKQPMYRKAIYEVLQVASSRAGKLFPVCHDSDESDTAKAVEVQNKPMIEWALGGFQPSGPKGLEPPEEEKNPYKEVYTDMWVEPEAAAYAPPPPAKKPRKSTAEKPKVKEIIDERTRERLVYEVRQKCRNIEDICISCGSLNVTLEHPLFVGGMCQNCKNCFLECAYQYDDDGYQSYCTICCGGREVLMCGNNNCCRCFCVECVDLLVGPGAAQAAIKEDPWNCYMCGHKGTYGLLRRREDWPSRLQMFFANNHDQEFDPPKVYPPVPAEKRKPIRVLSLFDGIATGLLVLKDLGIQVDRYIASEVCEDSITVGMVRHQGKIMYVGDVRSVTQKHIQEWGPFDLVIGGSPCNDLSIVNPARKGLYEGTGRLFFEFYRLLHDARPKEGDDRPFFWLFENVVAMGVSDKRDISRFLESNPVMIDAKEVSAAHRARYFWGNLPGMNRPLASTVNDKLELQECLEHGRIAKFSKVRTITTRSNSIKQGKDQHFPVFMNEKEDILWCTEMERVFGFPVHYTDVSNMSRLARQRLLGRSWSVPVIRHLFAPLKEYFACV

[6] = target: T3, DNA (cytosine-5)-methyltransferase 3B (Homo sapiens, UniProt Q9UBC3); experiment: Inhibition of DNMT3B (unknown origin) at 5 uM preincubated for 15 mins followed by substrate and [3H-SAM] addition and measured after 60 mins by microbeta analysis relative to control; details: time 75.0 min
[7] = target: T4, Histone-lysine N-methyltransferase EHMT2 (Homo sapiens) (UniProt Q96KQ7); experiment: Inhibition of G9a (unknown origin) at 5 uM preincubated for 15 mins followed by substrate and [3H-SAM] addition and measured after 60 mins by microbeta analysis relative to control; details: time 75.0 min
T4 sequence (whole entry): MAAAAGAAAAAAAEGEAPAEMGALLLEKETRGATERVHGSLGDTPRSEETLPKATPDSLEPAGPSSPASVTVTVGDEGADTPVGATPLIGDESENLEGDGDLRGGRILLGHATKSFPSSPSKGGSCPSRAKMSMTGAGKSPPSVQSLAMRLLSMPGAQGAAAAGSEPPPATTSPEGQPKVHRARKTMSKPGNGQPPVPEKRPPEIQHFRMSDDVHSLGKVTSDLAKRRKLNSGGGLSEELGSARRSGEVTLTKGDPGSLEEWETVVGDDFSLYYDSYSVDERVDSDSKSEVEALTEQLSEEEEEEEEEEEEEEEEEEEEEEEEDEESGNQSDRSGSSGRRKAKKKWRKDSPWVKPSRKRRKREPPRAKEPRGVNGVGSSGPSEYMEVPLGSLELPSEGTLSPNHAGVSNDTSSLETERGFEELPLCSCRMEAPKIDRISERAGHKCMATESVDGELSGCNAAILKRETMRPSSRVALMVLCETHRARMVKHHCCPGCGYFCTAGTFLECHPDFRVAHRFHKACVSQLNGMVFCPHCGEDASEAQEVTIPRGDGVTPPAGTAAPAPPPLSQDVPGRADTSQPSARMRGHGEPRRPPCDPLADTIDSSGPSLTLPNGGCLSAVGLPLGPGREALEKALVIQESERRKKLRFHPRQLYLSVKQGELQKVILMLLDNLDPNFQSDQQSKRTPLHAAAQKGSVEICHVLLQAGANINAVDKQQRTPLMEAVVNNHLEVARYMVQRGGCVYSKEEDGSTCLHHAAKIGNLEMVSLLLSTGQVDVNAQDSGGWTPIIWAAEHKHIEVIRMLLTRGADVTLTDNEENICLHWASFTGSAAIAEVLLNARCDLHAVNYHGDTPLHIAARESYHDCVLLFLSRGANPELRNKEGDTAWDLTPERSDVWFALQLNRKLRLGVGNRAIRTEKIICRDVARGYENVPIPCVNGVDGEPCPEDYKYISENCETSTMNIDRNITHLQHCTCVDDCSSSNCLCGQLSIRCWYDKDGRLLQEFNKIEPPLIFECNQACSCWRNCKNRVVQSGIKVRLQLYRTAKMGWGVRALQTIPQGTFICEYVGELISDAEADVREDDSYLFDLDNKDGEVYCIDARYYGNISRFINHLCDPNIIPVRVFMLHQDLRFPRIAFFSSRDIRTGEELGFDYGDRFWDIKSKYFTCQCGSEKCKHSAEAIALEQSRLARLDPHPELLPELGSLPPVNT

[8] = system: U-937; experiment: Antiproliferative activity against human U-937 cells assessed as inhibition of cell viability measured after 72 hrs by MTT assay; format: functional, cell-based; details: U-937, 72 h
[9] = target: T2, DNA (cytosine-5)-methyltransferase 3A; experiment: Inhibition of DNMT3A (unknown origin) preincubated for 15 mins followed by substrate and [3H-SAM] addition and measured after 60 mins by microbeta analysis
[10] = target: T3, DNA (cytosine-5)-methyltransferase 3B; experiment: Inhibition of DNMT3B (unknown origin) preincubated for 15 mins followed by substrate and [3H-SAM] addition and measured after 60 mins by microbeta analysis
[11] = target: T5, Histone-lysine N-methyltransferase EHMT2 (Homo sapiens, UniProt Q96KQ7); experiment: Inhibition of G9a (unknown origin) preincubated for 15 mins followed by substrate and [3H-SAM] addition and measured after 60 mins by microbeta analysis
T5 sequence (Q96KQ7 whole entry): T4 sequence (whole entry)

[12] = Cmax in Sprague-Dawley rat at 10 mg/kg, po measured upto 24 hrs by LC/MS/MS analysis; format: ADME, organism-based; details: in vivo
[13] = Volume of distribution at steady state in Sprague-Dawley rat at 10 mg/kg, po measured upto 24 hrs by LC/MS/MS analysis; format: ADME, organism-based; details: in vivo
[14] = Terminal elimination half life in Sprague-Dawley rat at 10 mg/kg, po measured upto 24 hrs by LC/MS/MS analysis; format: ADME, organism-based; details: in vivo, read-out: beta t1/2 (converted)
[15] = Apparent clearance during terminal phase in Sprague-Dawley rat at 10 mg/kg, po measured upto 24 hrs by LC/MS/MS analysis; format: ADME, organism-based; details: in vivo, read-out: CLz/F (converted)
[16] = AUC (0 to t) in Sprague-Dawley rat at 10 mg/kg, po measured upto 24 hrs by LC/MS/MS analysis; format: ADME, organism-based; details: in vivo
[17] = Oral bioavailability in Sprague-Dawley rat at 10 mg/kg measured upto 24 hrs by LC/MS/MS analysis; format: ADME, organism-based; details: in vivo
[18] = Cmax in Sprague-Dawley rat at 10 mg/kg, iv measured upto 24 hrs by LC/MS/MS analysis; format: ADME, organism-based; details: in vivo
[19] = Volume of distribution at steady state in Sprague-Dawley rat at 10 mg/kg, iv measured upto 24 hrs by LC/MS/MS analysis; format: ADME, organism-based; details: in vivo, read-out: Vdss
[20] = Terminal elimination half life in Sprague-Dawley rat at 10 mg/kg, iv measured upto 24 hrs by LC/MS/MS analysis; format: ADME, organism-based; details: in vivo, read-out: beta t1/2 (converted)
[21] = Clearance in Sprague-Dawley rat at 10 mg/kg, iv measured upto 24 hrs by LC/MS/MS analysis; format: ADME, organism-based; details: in vivo
[22] = AUC (0 to t) in Sprague-Dawley rat at 10 mg/kg, iv measured upto 24 hrs by LC/MS/MS analysis; format: ADME, organism-based; details: in vivo

T1 sequence (P26358 whole entry): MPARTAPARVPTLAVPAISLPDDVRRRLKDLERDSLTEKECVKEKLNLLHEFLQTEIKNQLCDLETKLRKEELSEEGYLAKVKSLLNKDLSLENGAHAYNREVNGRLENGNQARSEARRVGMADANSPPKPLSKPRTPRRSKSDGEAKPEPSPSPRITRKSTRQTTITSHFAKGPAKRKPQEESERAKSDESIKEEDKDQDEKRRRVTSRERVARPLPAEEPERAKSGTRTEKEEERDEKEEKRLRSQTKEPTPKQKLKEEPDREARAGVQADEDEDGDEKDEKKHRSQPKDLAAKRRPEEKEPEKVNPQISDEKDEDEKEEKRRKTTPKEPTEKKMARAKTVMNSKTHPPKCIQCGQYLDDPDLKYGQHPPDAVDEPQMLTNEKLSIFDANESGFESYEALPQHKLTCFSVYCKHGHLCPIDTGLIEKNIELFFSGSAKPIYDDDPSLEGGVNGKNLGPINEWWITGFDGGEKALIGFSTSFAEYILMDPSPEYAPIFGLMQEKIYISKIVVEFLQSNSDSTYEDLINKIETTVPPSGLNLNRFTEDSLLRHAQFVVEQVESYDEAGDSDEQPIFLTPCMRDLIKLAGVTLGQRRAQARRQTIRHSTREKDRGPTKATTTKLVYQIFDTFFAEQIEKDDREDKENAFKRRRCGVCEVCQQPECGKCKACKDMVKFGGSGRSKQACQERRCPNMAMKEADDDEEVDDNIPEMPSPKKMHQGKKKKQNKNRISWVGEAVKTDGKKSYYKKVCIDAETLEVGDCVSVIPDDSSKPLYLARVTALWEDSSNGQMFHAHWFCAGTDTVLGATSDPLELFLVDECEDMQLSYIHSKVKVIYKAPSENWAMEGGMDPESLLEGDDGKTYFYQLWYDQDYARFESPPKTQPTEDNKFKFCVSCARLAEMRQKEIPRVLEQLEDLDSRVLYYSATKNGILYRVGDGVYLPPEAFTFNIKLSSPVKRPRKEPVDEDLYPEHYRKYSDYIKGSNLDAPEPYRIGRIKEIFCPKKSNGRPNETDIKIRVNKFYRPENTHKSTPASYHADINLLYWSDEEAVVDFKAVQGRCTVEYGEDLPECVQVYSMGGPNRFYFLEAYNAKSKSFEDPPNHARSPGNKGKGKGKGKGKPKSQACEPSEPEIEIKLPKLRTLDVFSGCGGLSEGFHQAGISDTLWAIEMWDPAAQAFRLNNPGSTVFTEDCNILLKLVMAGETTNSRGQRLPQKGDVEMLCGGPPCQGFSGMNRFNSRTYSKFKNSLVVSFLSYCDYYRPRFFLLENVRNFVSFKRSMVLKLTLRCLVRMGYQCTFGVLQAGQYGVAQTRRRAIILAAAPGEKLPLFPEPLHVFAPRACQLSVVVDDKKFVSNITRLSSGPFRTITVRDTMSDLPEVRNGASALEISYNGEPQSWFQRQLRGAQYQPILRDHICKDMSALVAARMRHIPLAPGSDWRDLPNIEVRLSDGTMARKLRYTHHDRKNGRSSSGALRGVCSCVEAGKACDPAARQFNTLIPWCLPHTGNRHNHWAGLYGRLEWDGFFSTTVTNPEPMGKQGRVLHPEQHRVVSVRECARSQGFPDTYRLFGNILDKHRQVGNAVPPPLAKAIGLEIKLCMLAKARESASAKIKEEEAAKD

SMILES	IC50 [2] [µM]	IC50 [3] [µM]	inhibition [4] [%]	inhibition [5] [%]	inhibition [6] [%]	inhibition [7] [%]	IC50 [8] [µM]	IC50 [9] [µM]	IC50 [10] [µM]	IC50 [11] [µM]	other results
CN1CCN(c2cc(NCC3CCN(C(=O)C(C)(C)C)CC3)c3cnn(CCCN4CCOCC4)c3c2)CC1	24.4										inhibition [1]: 41%
CN1CCN(c2cc(NCC3CCN(C(=O)NC(C)(C)C)CC3)c3cnn(CCCN4CCOCC4)c3c2)CC1	19.4										inhibition [1]: 0.91%
CN1CCC(Nc2nc(-c3ccc(N)nc3)nc3c2ccn3CCCN2CCCC2)CC1	18.3	1.62	52	17	0.6	-1.1	26.8	16.7	> 20	> 20	
CN1CCC(Nc2nc(-c3ccc(F)cc3)nc3c2ccn3CCCN2CCCC2)CC1	1.66		63	13	-6.6	0.3	2.45	4	18.3		
CN1CCC(Nc2nc(-c3ccc(F)nc3)nc3c2ccn3CCCN2CCCC2)CC1	3.87		72	6.8		4.2	2.61	3.13	> 20		Cmax [12]: 0.0173 µg/mL; Vdss [13]: 303.6 L/kg; half-life [14]: 3.5 h; CL/F [15]: 62.9 L/h/kg; AUC(0-t) at 24 h ([16]; Sprague-Dawley): 0.116 µg·h/mL; bioavailability ([17]; Sprague-Dawley): 6.5%; Cmax [18]: 0.436 µg/mL; Vd [19]: 33.8 L/kg; half-life [20]: 7.8 h; clearance [21]: 2.7 L/h/kg; AUC(0-t) at 24 h ([22]; Sprague-Dawley): 2.08 µg·h/mL
CN1CCC(Nc2nc(-c3ccncc3)nc3c2ccn3CCCN2CCCC2)CC1	7.7	3.94	69	8.5	3.5	1.3	10.1	> 20	> 20	> 20	
CN1CCC(Nc2nc(-c3ccc(C#N)c(F)c3)nc3c2ccn3CCCN2CCCC2)CC1	2.05	1.22	82	11	2.3	-1.3	1.2	10.9	12.4	> 20	Cmax [12]: 0.0293 µg/mL; Vdss [13]: 673.5 L/kg; half-life [14]: 12.3 h; CL/F [15]: 50.6 L/h/kg; AUCt ([16]; po, 10 mg/kg, 24 h): 0.3026 µg·h/mL; F ([17]; po, 10 mg/kg, 24 h): 5.4%; Cmax [18]: 0.698 µg/mL; Vd [19]: 22.4 L/kg; half-life [20]: 12.1 h; clearance [21]: 1.3 L/h/kg; AUCt ([22]; iv, 10 mg/kg, 24 h): 2.7755 µg·h/mL
CN1CCN(c2cc(NCC3CCN(C(=O)C4CCC4)CC3)c3cnn(CCCN4CCOCC4)c3c2)CC1	34.5										inhibition [1]: 9.3%
CC(C)N1CCC(Nc2nc(-c3ccccc3)nc3c2ncn3CCCN2CCCC2)CC1	8.85	11.9	7.2	21	0.7	6	12.4				
COc1ccc(-c2nc(NC3CCN(C)CC3)c3ccn(CCCN4CCCC4)c3n2)cn1	10.2	1.9	49	15	1.2	1	4.53	18.3	> 20	> 20	
Cc1ccc(-c2nc(NC3CCN(C)CC3)c3ccn(CCCN4CCCC4)c3n2)o1	11.8		43	16.5	-2.5	7.2	43.6	7.95	14.6		
CC(C)N1CCC(Nc2nc(-c3cn[nH]c3)nc3c2ncn3CCCN2CCCC2)CC1	> 100	55.4	49	8.6	-5.5	-2.4	> 100				
Cc1ccc(-c2cc(NCC3CCN(C(=O)OCc4ccccc4)CC3)c3cnn(CCCN4CCCC4)c3c2)o1	1.07	> 30	0.36	12	53	9.7	6.95				
